We go through five compounds from article PMC11676982, “Heterotropic Activation of Cytochrome P450 3A4 by Perillyl Alcohol” (Pharmaceutics, 2024).

In data set [1] the target is T1, CYP2A6 (Homo sapiens, UniProt P11509).
T1 sequence (P11509 1-494): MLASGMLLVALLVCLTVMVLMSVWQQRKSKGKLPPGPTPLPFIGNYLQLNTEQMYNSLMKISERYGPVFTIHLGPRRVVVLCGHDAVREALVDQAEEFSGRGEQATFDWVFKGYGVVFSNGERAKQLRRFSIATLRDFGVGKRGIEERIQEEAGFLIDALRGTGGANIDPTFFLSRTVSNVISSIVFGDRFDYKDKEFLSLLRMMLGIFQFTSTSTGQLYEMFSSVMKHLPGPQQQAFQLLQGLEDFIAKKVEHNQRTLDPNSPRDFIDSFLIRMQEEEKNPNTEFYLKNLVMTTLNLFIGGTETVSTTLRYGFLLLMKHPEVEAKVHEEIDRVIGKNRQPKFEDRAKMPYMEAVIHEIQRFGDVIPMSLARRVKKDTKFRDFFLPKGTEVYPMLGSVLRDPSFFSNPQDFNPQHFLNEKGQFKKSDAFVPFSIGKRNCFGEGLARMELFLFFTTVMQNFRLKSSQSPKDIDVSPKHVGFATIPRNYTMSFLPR
As to the kind of experiment: Direct CYP inhibition assay in pooled HLMs, CYP2A6 (coumarin). The following applies: pooled HLMs 0.2 mg/mL; substrate coumarin 5 μM; 10 min; 95% CI in parentheses; read-out: IC50 against CYP2A6. The class given is in vitro ADME.

In data set [2] the target is CYP2C19 (Homo sapiens, UniProt P33261). As to the kind of experiment: Direct CYP inhibition assay in pooled HLMs, CYP2C19 (S-mephenytoin). The following applies: read-out: IC50 against CYP2C19; pooled HLMs 0.2 mg/mL; substrate (S)-mephenytoin 100 μM; 10 min; 95% CI in parentheses.
Chain of CYP2C19 (P33261 whole entry, canonical isoform): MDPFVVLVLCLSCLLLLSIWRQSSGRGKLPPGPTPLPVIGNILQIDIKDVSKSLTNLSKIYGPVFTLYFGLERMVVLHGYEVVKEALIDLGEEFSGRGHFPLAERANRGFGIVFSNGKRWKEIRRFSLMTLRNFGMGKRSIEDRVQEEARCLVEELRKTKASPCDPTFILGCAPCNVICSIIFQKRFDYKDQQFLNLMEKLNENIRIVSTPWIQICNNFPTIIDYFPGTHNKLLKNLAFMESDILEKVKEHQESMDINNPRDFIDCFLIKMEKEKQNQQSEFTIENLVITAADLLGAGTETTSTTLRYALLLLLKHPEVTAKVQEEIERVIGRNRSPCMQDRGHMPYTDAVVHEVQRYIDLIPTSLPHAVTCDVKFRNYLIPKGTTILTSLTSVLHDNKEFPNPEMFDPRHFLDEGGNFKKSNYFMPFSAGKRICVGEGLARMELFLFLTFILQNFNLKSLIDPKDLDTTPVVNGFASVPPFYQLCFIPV
Data set [3] concerns CYP isoforms (CYP1A2, CYP2A6, CYP2B6, CYP2C8, CYP2C9, CYP2C19, CYP2D6, CYP2E1, and CYP3A4). As to the kind of experiment: Direct CYP inhibition assay in pooled HLMs, nine CYP isoforms (summary statement). Particulars: up to 50 μM.
For data set [4], the target named is T2, CYP2B6 (Homo sapiens, UniProt P20813).
T2 sequence (P20813 1-491): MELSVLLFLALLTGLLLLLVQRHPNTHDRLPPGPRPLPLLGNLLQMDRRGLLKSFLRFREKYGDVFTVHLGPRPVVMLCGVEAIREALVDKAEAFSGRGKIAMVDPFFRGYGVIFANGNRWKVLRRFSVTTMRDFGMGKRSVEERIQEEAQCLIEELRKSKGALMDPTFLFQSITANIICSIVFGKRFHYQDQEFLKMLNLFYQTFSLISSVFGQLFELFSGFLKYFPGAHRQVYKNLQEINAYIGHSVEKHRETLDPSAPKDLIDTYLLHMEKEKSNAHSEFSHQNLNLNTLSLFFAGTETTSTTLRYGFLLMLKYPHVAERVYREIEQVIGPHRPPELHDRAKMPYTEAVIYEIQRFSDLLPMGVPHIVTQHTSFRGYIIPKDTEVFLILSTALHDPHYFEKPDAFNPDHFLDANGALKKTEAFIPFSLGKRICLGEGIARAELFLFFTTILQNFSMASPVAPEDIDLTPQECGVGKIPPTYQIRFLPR
In words: Direct CYP inhibition assay in pooled HLMs, CYP2B6 (bupropion). Particulars: read-out: IC50 against CYP2B6; pooled HLMs 0.2 mg/mL; substrate bupropion 50 μM; 10 min; 95% CI in parentheses.

Data set [5] concerns the target T1, CYP2A6. As to the kind of experiment: Metabolism-dependent inhibition assay (IC50 shift) in pooled HLMs, CYP2A6. The following applies: substrate coumarin; for IC50: pooled HLMs, 95% CI in parentheses. As to the method: (§1) The experiments for determining metabolism-dependent inhibition were conducted utilizing a non-dilution method. […] The pre-incubation was initiated by the addition of 1 mM NADPH and incubation for 30 min. Subsequently, final incubation was performed with the addition of a substrate (5 μM coumarin or 50 μM bupropion) in the presence of NADPH for 10 min; the total volume of the mixture was 200 μL. […] Mixtures were subjected to centrifugation at 3000× g for 20 min at 4 °C, and the supernatants were analyzed using LC-MS/MS. The experiment was performed using three separate samples.
(§2) The CYP-mediated activities in the presence of test substances were expressed as percentages of the corresponding control values.

For data set [6], the target named is T2, CYP2B6. As to the kind of experiment: Metabolism-dependent inhibition assay (IC50 shift) in pooled HLMs, CYP2B6. The following applies: substrate bupropion. As to the method:
as §1, §2

Data set [7] deals with T2, CYP2B6. As to the kind of experiment: Determination of CYP inhibition mode and Ki in pooled HLMs, CYP2B6-mediated bupropion hydroxylation.
Method: (§3) A 5 min pre-incubation was performed prior to initiating reactions with the addition of 1 mM NADPH. After incubation at 37 °C for 10 min, 200 μL of ice-cold acetonitrile containing 100 nM carbamazepine as an internal standard was added to terminate the reaction. The samples were agitated and centrifuged at 4 °C for 20 min at 3000× g. The supernatants were transferred to a 96-well plate for LC-MS/MS analysis. The experiment was performed using three separate samples.
(§4) Data acquired from the evaluation of enzyme inhibition using various concentrations of substrates and test compounds were fit to different models (competitive, noncompetitive, uncompetitive, or mixed), and inhibition constant (Ki) and goodness of fit values were obtained using GraphPad Prism. The appropriate type of inhibition was selected based on statistical goodness of fit tests including Akaike’s information criterion (AICc) with correction for small sample size and the standard deviation of the residuals (Sy.x).
Data set [8] concerns the target T1, CYP2A6. As to the kind of experiment: Determination of CYP inhibition mode and Ki in pooled HLMs, CYP2A6-mediated coumarin 7-hydroxylation.
Method: as §3, §4
Setting [9] is: IC50 without NADPH/IC50 with NADPH.
Where [10] appears, read: best fit by AICc and Sy.x, Dixon plots.

In the case of `N[C@@H]1C[C@H]1c1ccccc1` (racemic) [Tranylcypromine, reference compound], in data set [1], the IC50 – broadly, the concentration that gives 50% inhibition – stood at 0.5 µM.

With `COc1ccc2[nH]c([S+]([O-])Cc3ncc(C)c(OC)c3C)nc2c1` (stereo not drawn) [Omeprazole, reference compound], in data set [2], the IC50 came out at 5.4 µM.

Take `C=C(C)[C@H]1CC=C(C(=O)O)CC1` [(−)-PA, (−)-perillic acid]: the “Inhibition of activities of CYP isoforms (words)” value in data set [3] is “did not significantly inhibit”; in data set [3] (listed as PA), “not significantly inhibited”.

Regarding `C=C(C)C1CC=C(C=O)CC1` (single isomer, unassigned; (+)) [(+)-PAH, (+)-perillaldehyde], the concentration for half-maximal inhibition (IC50) in data set [1] is 10.6 µM; in data set [4], 29 µM; in data set [2], 50.5 µM.

With `C=C(C)C1CC=C(C=O)CC1` (single isomer, unassigned; (-)) [(−)-PAH, (−)-Perillaldehyde], the IC50 in data set [1] is 3.64 µM; in data set [5] (read-out: IC50, pre-incubation with NADPH, CYP2A6, 30 min pre-incubation with NADPH), 7.99 µM; in data set [5] (read-out: IC50, pre-incubation without NADPH, CYP2A6, 30 min pre-incubation without NADPH), 8.25 µM; in data set [6] (read-out: IC50, pre-incubation without NADPH, CYP2B6, pooled HLMs, 30 min pre-incubation without NADPH, 95% CI in parentheses), 11.9 µM; in data set [4] it was 6.15 µM; in data set [2], 18 µM. Further, the “IC50 fold-shift, CYP2A6” value in data set [5] (setting [9]) worked out at 1.03. The “IC50 fold-shift, CYP2B6” value in data set [6] (setting [9]) is 0.78. Moreover, in data set [7] (setting [10]), the “Type of inhibition, CYP2B6” value is given as “mixed inhibition model”. For the same compound, in data set [7] (pooled HLMs, bupropion, 95% CI in parentheses), the “Ki, CYP2B6, uncompetitive model (not selected)” value was 2.77 (2.31–3.28) μM. Also, the inhibition constant (Ki) (usually a measure of affinity in units of concentration, obtained from inhibition or displacement) was 3.05 µM in data set [7] (read-out: Ki, CYP2B6, mixed inhibition model (selected best fit), pooled HLMs, bupropion 12.5–100 μM, 95% CI in parentheses) and 1.72 µM in data set [8] (read-out: Ki, CYP2A6, mixed inhibition model (selected best fit), pooled HLMs, coumarin 1.25–10 μM, 95% CI in parentheses). Further, in data set [8] (setting [10]), the “Type of inhibition, CYP2A6” value is listed as “mixed inhibition model”. The “Ki, CYP2A6, uncompetitive model (not selected)” value in data set [8] (pooled HLMs, coumarin, 95% CI in parentheses) was 2.40 (2.04–2.82) μM.
